Test results published in US20230085307A1, “PYRIDAZINONE COMPOUND AND HERBICIDE” (NISSAN CHEMICAL CORPORATION, priority 2019, published 2023).

Columns and labels:
blackgrass = experiment: Test Example 5: herbicidal effect by foliage application, plastic box (Table 20, symbol J); format: in vivo, blackgrass (Alopecurus myosuroides); settings: foliage application, AAH 320 g/ha, evaluated three weeks after application
How it was run: (§1)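 Foliar spray test: emulsion formulation diluted in water to a set application rate, sprayed onto 14-day-old plants raised in diluvial soil at 25° C to 30° C under glass. Both herbicidal effect and crop effect rated visually three weeks later.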

rice flat sedge = experiment: Test Example 3: herbicidal effect by foliage application, Wagner pot (Table 18, symbol E); format: in vivo, rice flat sedge (Cyperus iria); settings: amount of applied herbicide 320 g/ha
How it was run: (§2)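 Plants were sown in alluvial soil held under 0.1–0.5 cm standing water and grown 14 days in a greenhouse at 25–30 °C. An emulsifiable formulation, water-diluted to the set dose, was then sprayed onto the foliage, and effects were scored three weeks later using previously defined criteria.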

barnyard grass [1] = experiment: Test Example 3: herbicidal effect by foliage application, Wagner pot (Table 18, symbol H); format: in vivo, barnyard grass (Echinochloa crus-galli); settings: amount of applied herbicide 320 g/ha
How it was run: as §2

chickweed [2] = experiment: Test Example 5: herbicidal effect by foliage application, plastic box (Table 20, symbol P); format: in vivo, common chickweed (Stellaria media); settings: foliage application, AAH 320 g/ha, evaluated three weeks after application
How it was run: as §1

green foxtail [3] = experiment: Test Example 5: herbicidal effect by foliage application, plastic box (Table 20, symbol G); format: in vivo, green foxtail (Setaria viridis); settings: foliage application, AAH 320 g/ha, evaluated three weeks after application
How it was run: as §1

Italian ryegrass [4] = experiment: Test Example 5: herbicidal effect by foliage application, plastic box (Table 20, symbol K); format: in vivo, Italian ryegrass (Lolium multiflorum); settings: foliage application, AAH 320 g/ha, evaluated three weeks after application
How it was run: as §1

Japanese bulrush = experiment: Test Example 2: herbicidal activity, application during weed generation under submerged conditions (Table 17, symbol B); format: in vivo, Japanese bulrush (Schoenoplectus juncoides); settings: AAH 320 g/ha; application during weed generation, submerged conditions
How it was run: (§3)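 3-wk visual-criteria score after one water-surface dose. Emulsion formulation, water-diluted to set rate; applied at 1–2 leaf stage; alluvial soil, 4 cm standing water; seeds co-sown; greenhouse 25–30° C.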

persian speedwell = experiment: Test Example 5: herbicidal effect by foliage application, plastic box (Table 20, symbol R); format: in vivo, Persian speedwell (Veronica persica); settings: foliage application, AAH 320 g/ha, evaluated three weeks after application
How it was run: as §1

Italian ryegrass [5] = experiment: Test Example 4: herbicidal effect by soil treatment (Table 19, symbol K); format: in vivo, Italian ryegrass (Lolium multiflorum); settings: amount of applied herbicide 320 g/ha
How it was run: (§4)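 Step 1: sow seeds in sterilized diluvial soil, cover ~1.5 cm. Step 2: spray diluted emulsion onto soil surface at predetermined rate. Step 3: greenhouse, 25–30° C, three weeks. Step 4: grade effect on each plant by earlier criteria.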

green foxtail [6] = experiment: Test Example 4: herbicidal effect by soil treatment (Table 19, symbol G); format: in vivo, green foxtail (Setaria viridis); settings: amount of applied herbicide 320 g/ha
How it was run: as §4

lambsquarters = experiment: Test Example 4: herbicidal effect by soil treatment (Table 19, symbol O); format: in vivo, lambsquarters (Chenopodium album); settings: amount of applied herbicide 320 g/ha
How it was run: as §4

velvetleaf [7] = experiment: Test Example 4: herbicidal effect by soil treatment (Table 19, symbol M); format: in vivo, velvetleaf (Abutilon theophrasti); settings: amount of applied herbicide 320 g/ha
How it was run: as §4

velvetleaf [8] = experiment: Test Example 5: herbicidal effect by foliage application, plastic box (Table 20, symbol M); format: in vivo, velvetleaf (Abutilon theophrasti); settings: foliage application, AAH 320 g/ha, evaluated three weeks after application
How it was run: as §1

barnyard grass [9] = experiment: Test Example 4: herbicidal effect by soil treatment (Table 19, symbol H); format: in vivo, barnyard grass (Echinochloa crus-galli); settings: amount of applied herbicide 320 g/ha
How it was run: as §4

southern crabgrass = experiment: Test Example 4: herbicidal effect by soil treatment (Table 19, symbol F); format: in vivo, southern crabgrass (Digitaria ciliaris); settings: amount of applied herbicide 320 g/ha
How it was run: as §4

windgrass = experiment: Test Example 5: herbicidal effect by foliage application, plastic box (Table 20, symbol L); format: in vivo, windgrass (Apera spica-venti); settings: foliage application, AAH 320 g/ha, evaluated three weeks after application
How it was run: as §1

redroot pigweed [10] = experiment: Test Example 4: herbicidal effect by soil treatment (Table 19, symbol N); format: in vivo, redroot pigweed (Amaranthus retroflexus); settings: amount of applied herbicide 320 g/ha
How it was run: as §4

chickweed [11] = experiment: Test Example 4: herbicidal effect by soil treatment (Table 19, symbol P); format: in vivo, common chickweed (Stellaria media); settings: amount of applied herbicide 320 g/ha
How it was run: as §4

late watergrass = experiment: Test Example 2: herbicidal activity, application during weed generation under submerged conditions (Table 17, symbol A); format: in vivo, late watergrass (Echinochloa oryzicola); settings: AAH 320 g/ha; application during weed generation, submerged conditions
How it was run: as §3

redroot pigweed [12] = experiment: Test Example 5: herbicidal effect by foliage application, plastic box (Table 20, symbol N); format: in vivo, redroot pigweed (Amaranthus retroflexus); settings: foliage application, AAH 320 g/ha, evaluated three weeks after application
How it was run: as §1

wild oat [13] = experiment: Test Example 5: herbicidal effect by foliage application, plastic box (Table 20, symbol I); format: in vivo, wild oat (Avena fatua); settings: foliage application, AAH 320 g/ha, evaluated three weeks after application
How it was run: as §1

wild oat [14] = experiment: Test Example 4: herbicidal effect by soil treatment (Table 19, symbol I); format: in vivo, wild oat (Avena fatua); settings: amount of applied herbicide 320 g/ha
How it was run: as §4

C=CCOC(=O)Oc1c(C)nn(C)c(=O)c1-c1c(-c2ccc(OC(F)F)cc2)sc2ccc(F)cc12 [2-294]
J: blackgrass, herbicidal effect (criteria 0-5) (blackgrass): 4 (Herbicidal rate of 70% or more and less than 90%)
herbicidal effect on E: rice flat sedge (rice flat sedge): 5 (Herbicidal rate of 90% or more (almost completely withered))
herbicidal effect on H: barnyard grass (barnyard grass [1]): 5 (Herbicidal rate of 90% or more (almost completely withered))
P: chickweed, herbicidal effect (criteria 0-5) (chickweed [2]): 5 (Herbicidal rate of 90% or more (almost completely withered))
G: green foxtail, herbicidal effect (criteria 0-5) (green foxtail [3]): 5 (Herbicidal rate of 90% or more (almost completely withered))
K: Italian ryegrass, herbicidal effect (criteria 0-5) (Italian ryegrass [4]): 5 (Herbicidal rate of 90% or more (almost completely withered))
herbicidal effect rating, B: Japanese bulrush (Japanese bulrush): 3 (Herbicidal rate of 40% or more and less than 70%)
R: persian speedwell, herbicidal effect (criteria 0-5) (persian speedwell): 5 (Herbicidal rate of 90% or more (almost completely withered))
herbicidal effect on K: Italian ryegrass (Italian ryegrass [5]): 5 (Herbicidal rate of 90% or more (almost completely withered))
herbicidal effect on G: green foxtail (green foxtail [6]): 5 (Herbicidal rate of 90% or more (almost completely withered))
herbicidal effect on O: lambsquarters (lambsquarters): 5 (Herbicidal rate of 90% or more (almost completely withered))
herbicidal effect on M: velvetleaf (velvetleaf [7]): 5 (Herbicidal rate of 90% or more (almost completely withered))
M: velvetleaf, herbicidal effect (criteria 0-5) (velvetleaf [8]): 5 (Herbicidal rate of 90% or more (almost completely withered))
herbicidal effect on H: barnyard grass (barnyard grass [9]): 5 (Herbicidal rate of 90% or more (almost completely withered))
herbicidal effect on F: southern crabgrass (southern crabgrass): 5 (Herbicidal rate of 90% or more (almost completely withered))
L: windgrass, herbicidal effect (criteria 0-5) (windgrass): 3 (Herbicidal rate of 40% or more and less than 70%)
herbicidal effect on N: redroot pigweed (redroot pigweed [10]): 5 (Herbicidal rate of 90% or more (almost completely withered))
herbicidal effect on P: chickweed (chickweed [11]): 5 (Herbicidal rate of 90% or more (almost completely withered))
herbicidal effect rating, A: late watergrass (late watergrass): 3 (Herbicidal rate of 40% or more and less than 70%)
N: redroot pigweed, herbicidal effect (criteria 0-5) (redroot pigweed [12]): 5 (Herbicidal rate of 90% or more (almost completely withered))
I: wild oat, herbicidal effect (criteria 0-5) (wild oat [13]): 3 (Herbicidal rate of 40% or more and less than 70%)
herbicidal effect on I: wild oat (wild oat [14]): 1 (Herbicidal rate of 5% or more and less than 20%)

COCCOC(=O)Oc1c(C)nn(C)c(=O)c1-c1c(-c2ccc(OC(F)F)cc2)sc2ccc(F)cc12 [2-295]
J: blackgrass, herbicidal effect (criteria 0-5) (blackgrass): 4 (Herbicidal rate of 70% or more and less than 90%)
herbicidal effect on E: rice flat sedge (rice flat sedge): 5 (Herbicidal rate of 90% or more (almost completely withered))
herbicidal effect on H: barnyard grass (barnyard grass [1]): 5 (Herbicidal rate of 90% or more (almost completely withered))
P: chickweed, herbicidal effect (criteria 0-5) (chickweed [2]): 5 (Herbicidal rate of 90% or more (almost completely withered))
G: green foxtail, herbicidal effect (criteria 0-5) (green foxtail [3]): 5 (Herbicidal rate of 90% or more (almost completely withered))
K: Italian ryegrass, herbicidal effect (criteria 0-5) (Italian ryegrass [4]): 5 (Herbicidal rate of 90% or more (almost completely withered))
herbicidal effect rating, B: Japanese bulrush (Japanese bulrush): 3 (Herbicidal rate of 40% or more and less than 70%)
R: persian speedwell, herbicidal effect (criteria 0-5) (persian speedwell): 5 (Herbicidal rate of 90% or more (almost completely withered))
herbicidal effect on K: Italian ryegrass (Italian ryegrass [5]): 5 (Herbicidal rate of 90% or more (almost completely withered))
herbicidal effect on G: green foxtail (green foxtail [6]): 5 (Herbicidal rate of 90% or more (almost completely withered))
herbicidal effect on O: lambsquarters (lambsquarters): 5 (Herbicidal rate of 90% or more (almost completely withered))
herbicidal effect on M: velvetleaf (velvetleaf [7]): 4 (Herbicidal rate of 70% or more and less than 90%)
M: velvetleaf, herbicidal effect (criteria 0-5) (velvetleaf [8]): 5 (Herbicidal rate of 90% or more (almost completely withered))
herbicidal effect on H: barnyard grass (barnyard grass [9]): 5 (Herbicidal rate of 90% or more (almost completely withered))
herbicidal effect on F: southern crabgrass (southern crabgrass): 5 (Herbicidal rate of 90% or more (almost completely withered))
L: windgrass, herbicidal effect (criteria 0-5) (windgrass): 5 (Herbicidal rate of 90% or more (almost completely withered))
herbicidal effect on N: redroot pigweed (redroot pigweed [10]): 5 (Herbicidal rate of 90% or more (almost completely withered))
herbicidal effect on P: chickweed (chickweed [11]): 4 (Herbicidal rate of 70% or more and less than 90%)
herbicidal effect rating, A: late watergrass (late watergrass): 5 (Herbicidal rate of 90% or more (almost completely withered))
N: redroot pigweed, herbicidal effect (criteria 0-5) (redroot pigweed [12]): 5 (Herbicidal rate of 90% or more (almost completely withered))
I: wild oat, herbicidal effect (criteria 0-5) (wild oat [13]): 3 (Herbicidal rate of 40% or more and less than 70%)
herbicidal effect on I: wild oat (wild oat [14]): 1 (Herbicidal rate of 5% or more and less than 20%)

COc1cccc(S(=O)(=O)Oc2c(C)nn(C)c(=O)c2-c2c(-c3ccc(OC(F)F)cc3)sc3ccc(F)cc23)c1 [2-313]
J: blackgrass, herbicidal effect (criteria 0-5) (blackgrass): 4 (Herbicidal rate of 70% or more and less than 90%)
herbicidal effect on E: rice flat sedge (rice flat sedge): 5 (Herbicidal rate of 90% or more (almost completely withered))
herbicidal effect on H: barnyard grass (barnyard grass [1]): 5 (Herbicidal rate of 90% or more (almost completely withered))
P: chickweed, herbicidal effect (criteria 0-5) (chickweed [2]): 5 (Herbicidal rate of 90% or more (almost completely withered))
G: green foxtail, herbicidal effect (criteria 0-5) (green foxtail [3]): 5 (Herbicidal rate of 90% or more (almost completely withered))
K: Italian ryegrass, herbicidal effect (criteria 0-5) (Italian ryegrass [4]): 5 (Herbicidal rate of 90% or more (almost completely withered))
herbicidal effect rating, B: Japanese bulrush (Japanese bulrush): 3 (Herbicidal rate of 40% or more and less than 70%)
R: persian speedwell, herbicidal effect (criteria 0-5) (persian speedwell): 5 (Herbicidal rate of 90% or more (almost completely withered))
herbicidal effect on K: Italian ryegrass (Italian ryegrass [5]): 5 (Herbicidal rate of 90% or more (almost completely withered))
herbicidal effect on G: green foxtail (green foxtail [6]): 2 (Herbicidal rate of 20% or more and less than 40%)
herbicidal effect on O: lambsquarters (lambsquarters): 3 (Herbicidal rate of 40% or more and less than 70%)
herbicidal effect on M: velvetleaf (velvetleaf [7]): 4 (Herbicidal rate of 70% or more and less than 90%)
M: velvetleaf, herbicidal effect (criteria 0-5) (velvetleaf [8]): 5 (Herbicidal rate of 90% or more (almost completely withered))
herbicidal effect on H: barnyard grass (barnyard grass [9]): 1 (Herbicidal rate of 5% or more and less than 20%)
herbicidal effect on F: southern crabgrass (southern crabgrass): 0 (Herbicidal rate of 5% or less (almost no effect))
L: windgrass, herbicidal effect (criteria 0-5) (windgrass): 2 (Herbicidal rate of 20% or more and less than 40%)
herbicidal effect on N: redroot pigweed (redroot pigweed [10]): 5 (Herbicidal rate of 90% or more (almost completely withered))
herbicidal effect on P: chickweed (chickweed [11]): 5 (Herbicidal rate of 90% or more (almost completely withered))
herbicidal effect rating, A: late watergrass (late watergrass): 3 (Herbicidal rate of 40% or more and less than 70%)
N: redroot pigweed, herbicidal effect (criteria 0-5) (redroot pigweed [12]): 5 (Herbicidal rate of 90% or more (almost completely withered))
I: wild oat, herbicidal effect (criteria 0-5) (wild oat [13]): 2 (Herbicidal rate of 20% or more and less than 40%)
herbicidal effect on I: wild oat (wild oat [14]): 0 (Herbicidal rate of 5% or less (almost no effect))
